Columns and labels:
[1] = Inhibition of AAPH induced linoleic acid peroxidation
Protocol: For the lipid peroxidation study, 2,2′-Azobis(2-methylpropionamidine) dihydrochloride (AAPH) was used as the generator of peroxy radicals and sodium linoleate as the substrate that undergoes peroxidation. The conversion of linoleic acid to 13-hydroperoxy-linoleic acid was recorded at 234 nm. The change of absorbance reflects the possible antioxidant activity of the tested compounds, in comparison with the reference compound, Trolox.
In vitro study was performed as reported previously by our group. AAPH was used as a free radical generator of alkyl peroxyl radicals. For this experimental procedure, 10 μL of the tested compound (from the stock solution), 10 μL sodium linoleate (16 mM), 50 μL AAPH (40 mM) and 930 μL phosphate-buffered solution (pH 7.4) were added in a UV cuvette (1 mL), pre thermostated at 37 °C. The ability of the compounds to prevent the oxidation of linoleic acid from alkyl peroxyl radicals was evaluated by recording the change of absorbance at 234 nm, due to the conversion of linoleic acid to 13-hydroperoxy-linoleic acid. Trolox was used as the reference.

soybean lipoxygenase = molecular target: T1, soybean lipoxygenase (Glycine max, UniProt P08170); experiment: Inhibition of soybean lipoxygenase; type: biochemical; details: for IC50: cells of the mixed column with μM, read-out: LOX IC50
T1 construct: purchased Sigma Aldrich- Merck KGaA, Darmstadt, Germany
T1 sequence (P08170 1-839): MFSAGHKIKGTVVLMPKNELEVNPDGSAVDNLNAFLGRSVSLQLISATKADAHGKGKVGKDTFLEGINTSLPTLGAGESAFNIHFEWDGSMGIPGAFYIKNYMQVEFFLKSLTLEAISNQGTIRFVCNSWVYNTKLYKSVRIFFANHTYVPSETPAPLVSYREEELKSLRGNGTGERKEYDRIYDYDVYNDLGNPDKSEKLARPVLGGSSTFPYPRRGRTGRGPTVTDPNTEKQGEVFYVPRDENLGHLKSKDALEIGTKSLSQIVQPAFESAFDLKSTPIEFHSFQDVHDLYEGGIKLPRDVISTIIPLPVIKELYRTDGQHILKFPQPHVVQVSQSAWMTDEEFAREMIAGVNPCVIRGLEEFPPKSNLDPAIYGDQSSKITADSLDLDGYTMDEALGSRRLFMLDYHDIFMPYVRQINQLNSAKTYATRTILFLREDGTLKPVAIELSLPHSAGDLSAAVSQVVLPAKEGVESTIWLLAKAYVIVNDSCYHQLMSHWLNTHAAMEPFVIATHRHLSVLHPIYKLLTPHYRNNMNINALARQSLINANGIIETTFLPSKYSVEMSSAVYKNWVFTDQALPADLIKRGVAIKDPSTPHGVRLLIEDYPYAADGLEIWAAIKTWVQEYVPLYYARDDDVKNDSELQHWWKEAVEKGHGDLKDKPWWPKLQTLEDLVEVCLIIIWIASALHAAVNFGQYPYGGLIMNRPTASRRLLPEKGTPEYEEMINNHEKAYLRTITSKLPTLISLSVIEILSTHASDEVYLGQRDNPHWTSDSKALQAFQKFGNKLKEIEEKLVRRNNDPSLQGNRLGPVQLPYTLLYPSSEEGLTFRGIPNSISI
From the text: Lipoxygenase (LOX) is the key enzyme in the biosynthesis of inflammatory mediators; thus, it is considered a target for inflammatory diseases. Soybean LOX is a plant enzyme that has been used widely as a prototype for studying the functional and structural properties of the homologous family of lipoxygenases, presenting satisfactory homology with the human 5-LOX [42]. Linoleic acid is the most common substrate in plant LOX. […] Lipophilicity is considered one of the most important parameters with regard to LOX inhibitors according to the literature.
In vitro study was performed as reported previously by our group. In this experiment, 10 μL of the tested compound (from the stock solution) were incubated with 100 μL sodium linoleate (diluted in Tris buffer), 200 μL LOX solution (1:9 × 10^−4 w/v in saline) and 690 μL Tris buffer (pH 9.0) at room temperature. The absorbance was measured at 234 nm, where the change of absorbance was recorded due to the formation of 13-hydroperoxy-linoleic acid. […] In order to determine the IC50 values, different concentrations were used.

[2] = MTT cell viability assay, HaCaT; type: cell-based, human; details: human, HaCaT cells (epidermal keratinocyte cell line); for viability at 24 h, 10 μM: 10 μΜ
Protocol: (§1) The MTT (3-(4,5-dimethylthiazol-2-yl)-2,5-diphenyltetrazolium bromide) assay is a colorimetric method that is used for the evaluation of cell viability. MTT is converted into colored formazan crystals, indicating the activity of mitochondria and therefore the viability of the cells. Unlike dead cells, the metabolic processes of living cells are functional, meaning that the dehydrogenase enzymes are able to reduce the yellow MTT salt solution to purple crystals, at 37 °C. The intensity of the sample’s color, due to the amount of formazan crystals, is proportional to the number of the living cells in it. Additionally, the colored product is dissolved in various solubilizing agents, such as dimethyl sulfoxide (DMSO). The colored products can be quantitatively measured at 450 nm with a plate reader spectrophotometer. In this study, the human epidermal keratinocyte cell line (HaCaT) was treated with different concentrations (100 μM, 50 μM, 10 μM and 1 μM) of the tested compounds and then the viability rates at each effect were calculated.
(§2) Τhe MTT assay was used to evaluate cell viability or cell toxicity, depending on the cell line being tested. The experimental procedure was performed in a 96-well plate, where the cells were seeded and incubated (37 °C, 5% CO2) for 24 h to grow and cover the surface of the wells. Τhe seeding concentrations for the HaCaT and A549 cells were 30 × 10^4 cells/mL and 20 × 10^4 cells/mL, respectively. After the first incubation, the solutions of the compounds (with different concentrations) were added to the adherent cells and incubated for another 24 h. The compounds were tested in triplicate against the control (only cells in medium), the blank (only medium) and the positive/negative control (cells in 100 μM silibinin solution) triplicates. Silibinin, a flavonoid with known anticancer activities, was used as a negative control for the cell viability assay and as positive control for the cytotoxicity testing assay. The light-sensitive MTT-standard solution was prepared by dissolving 1 mg/mL MTT in PBS and then filtrated (in a […] filter (Millipore, Carrigtwohill, Ireland)). On the third day, an appropriate amount of ΜΤΤ solution was added to each well and the plate was incubated for 4 h. During the incubation time, the formazan crystals were formed, which were then dissolved with 100 μL DMSO per well. Finally, the plate was stirred for 30 min, and the optical density (OD) was measured in a plate reader spectrophotometer at 450 nm.

HaCaT cell line = experiment: MTT cell viability assay, HaCaT; type: cell-based, human; details: 100 μΜ, 24 h
Protocol: as §1, §2

A549 cell line = experiment: MTT cytotoxicity assay, A549; type: cell-based, human; details: Homo sapiens, 24 h; for cytotoxicity at 50 µM: A549, 50 μΜ, read-out: % Cell Toxicity 50 μΜ; for cytotoxicity at 100 µM: A549, 100 μΜ, read-out: % Cell Toxicity 100 μΜ; for cytotoxicity at 10 µM: A549, 10 μΜ, read-out: % Cell Toxicity 10 μΜ
Protocol: The compounds of this study were also tested for their cytotoxic effects against the adenocarcinomic human alveolar basal epithelial cell line (A549) at different concentrations (100 μM, 75 μΜ, 50 μM and 10 μM).
as §2

Row | IC50 (soybean lipoxygenase) | inhibition at 100 µM (soybean lipoxygenase; 100 μM, cells of the mixed column without μM, read-out: LOX % Inhibition 100 μM) | Compound | AAPH % Inhibition 100 μM [1] | viability at 24 h, 10 μM [2] | % Cell Viability 100 μΜ (HaCaT cell line) | cytotoxicity at 50 µM (A549 cell line) | cytotoxicity at 100 µM (A549 cell line) | viability at 24 h, 50 μM ([2]; 50 μΜ) | cytotoxicity at 10 µM (A549 cell line)
1 | 54 µM | – | O=c1[nH]c(=S)[nH]c2nc(-c3ccccc3)cc(-c3ccc(Cl)cc3Cl)c12 [Compound 2g, 5-(2,4-dichlorophenyl)-7-phenyl-2-thioxo-2,3-dihydropyrido [2,3-d]pyrimidin-4(1H)-one] | 95% | 56.7% | no | 79.1% | 79.4% | – | –
2 | – | 27% | O=c1[nH]c(=S)[nH]c2nc(-c3ccc(Cl)cc3)cc(-c3ccc(Cl)cc3Cl)c12 [Compound 2h, 7-(4-chlorophenyl)-5-(2,4-dichlorophenyl)-2-thioxo-2,3-dihydropyrido [2,3-d]pyrimidin-4(1H)-one] | 99% | 100% | no | 76.9% | 100% | 89.9% | 49.1%
3 | 70 µM | – | O=c1[nH]c(=S)[nH]c2nc(-c3ccc(Cl)cc3)cc(-c3cccs3)c12 [Compound 2d, 7-(4-chlorophenyl)-5-(thiophen-2-yl)-2-thioxo-2,3-dihydropyrido [2,3-d]pyrimidin-4(1H)-one] | 62% | 50% | no | 100% | 100% | – | 48.6%

— paper PMC10180197, “Novel Pyrimidine Derivatives as Antioxidant and Anticancer Agents: Design, Synthesis and Molecular Modeling Studies” (Molecules, 2023)
